{
  "source": "patent EP1614416A2",
  "about": "“Method for treating amyloidosis” (QUEEN'S UNIVERSITY AT KINGSTON, priority 1993, dated 1994)",
  "type_in_all_cases": "in vivo, mice",
  "key": {"[1]": {"system": "AA splenic amyloid deposition", "assay": "Chronic amyloidosis (LPS + AEF, inflammatory stimulus maintained), oral treatment from day 7, Experiments 5 and 6", "protocol": "(§1) In the following experiments, a well-characterized mouse model of amyloidosis was used. In this in vivo system, animals receive an inflammatory stimulus and amyloid enhancing factor. For acute amyloidosis (i.e., short term amyloid deposition), the inflammatory stimulus is AgNO3. For chronic amyloidosis (ongoing amyloid deposition), the inflammatory stimulus is lipopolysaccharide (LPS). Amyloid deposition (AA amyloid) in the spleens of mice was measured with and without therapeutic treatment.\nTo maintain the inflammation and the blood SAA levels, and allow amyloid to be continuously deposited for the duration of a longer term experiment, the nature of the inflammatory stimulus was changed. So as to maintain the inflammation, animals received lipopolysaccharide (LPS, 20 µg)+ AEF on day 0 and LPS was given by intraperitoneal injection every 2nd day. On day seven (7), the animals were separated into two groups as described in Experiment 4. Assessment of amyloid over the course of the experiment proceeded as described in Experiment 4. The control group (triangles) continued to deposit amyloid for the entire 17 day period. Those receiving PVS apparently stopped depositing amyloid by day 14 (open circles and dashed line). The data on day 17 represent 4 animals per group as one animal was omitted from this time period. The quantity of amyloid in this particular individual was so far removed from all other data points (treated or not, it was 21%) that it is believed that this was a statistically valid procedure. If this individual is included, the curve is represented by the dotted line and the remaining open circle. It should be pointed out that animals receiving PVS began to develop a significant diarrhea as the experiment proceeded.\nIn this experiment, another sulfonated compound, ethane monosulfate was used to inhibit amyloidosis. Ethane monosulfonate, sodium salt, (EMS) is structurally the monomeric unit of PVS. Animals were given LPS + AEF as in Experiment 5, but on day seven EMS was used in the drinking water as the therapeutic agent. […]"}, "amyloid deposition": {"system": "amyloid deposition", "assay": "Acute amyloidosis (AgNO3 + AEF), oral sulfonated lower aliphatics, visual examination of spleen sections, Experiment 8", "conditions": "50 µM in drinking water, six days; preliminary visual analysis of spleen sections", "protocol": "Acute amyloidosis was elicited in mice with AgNO3 and amyloid enhancing factor as described in Experiment 2. Twenty-four hours later, the animals were divided into a control group and six test groups. The control group was maintained on standard laboratory mouse chow and tap water ad. lib. The test groups received standard chow but their water contained 50 µM of one of the following six compounds: ethanesulfonic acid sodium salt, 2-amino-ethanesulfonic acid sodium salt (taurine), propane-1-sulfonic acid sodium salt, ethane-1,2-disulfonic acid sodium salt, propane-1,3-disulfonic acid sodium salt, or butane-1,4-disulfonic acid sodium salt. Water intake was approximately equivalent for all groups. After six days, the animals were sacrificed and their spleens were processed as described for Experiment 2. For preliminary analysis, the spleen sections were examined visually under a microscope for differences in amyloid deposition in the treated animals versus the control animals."}, "[2]": {"system": "AA amyloid deposition in mouse spleen", "assay": "Acute AA amyloidosis mouse model (AgNO3 + AEF), intraperitoneal treatment, Experiment 1", "conditions": "36.5 mg/injection IP every 8 hours, mean ± S.E.M., n = 5, untreated 7.8, p ≤ 0.02, immunostained sections, image analysis", "protocol": "as §1\nAll mice were of the CD strain (Charles Rivers, Montreal, Quebec) and weighing 25-30 g. […]\nAt the termination of the experiments, the animals were sacrificed by cervical dislocation and the spleens, livers, and kidneys were fixed in 96% ethanol, 1% glacial acetic acid and 3% water as described in Lyon, A.W. et al. (\"Co-deposition of Basement Membrane Components During the Induction of Murine Splenic AA Amyloid\" Lab. Invest. 64:785-790 (1991)). […] The histologic sections viewed under polarized light were assessed by image analysis for the percent of spleen occupied by amyloid. In the case of the experiments with sucrose octasulfate, the tissues were immunostained with an antibody to the SAA protein (described in Lyon A.W. et al. Lab Invest. 64:785-790 (1991)) and the immunostained sections assessed by image analysis for the percent of tissue section occupied by amyloid."}, "[3]": {"assay": "Viability of animals under intraperitoneal therapy, Experiment 1", "protocol": "All animals received AgNO3 (0.5 ml, 2% solution) subcutaneously in the back, and amyloid enhancing factor (AEF) 100 µg intravenously. The preparation of amyloid enhancing factor has been described previously in Axelrad, M.A. et al. (\"Further Characterization of Amyloid Enhancing Factor\" Lab. Invest. 47:139-146 (1982)). The animals were divided into several groups one of which was an untreated control group which was sacrificed six days later. The remaining animals were divided into those which received poly(vinyl sulfonic acid sodium salt) (PVS) at 50 mg, 40 mg, 20 mg, or 10mg by intraperitoneal injection every 12 hours or sucrose octasulfate ammonium salt (SOA) at 73 mg or 36.5 mg every 8 hours by IP injection. Surviving animals were sacrificed on the 5th day of treatment. In all cases the PVS or SOA was dissolved in a sterile aqueous carrier.\nAll control animals survived the experiment without incident. […] Animals receiving 36.5 mg of sucrose octasulfate/injection all survived. […] In all cases of animal deaths prior to the end of the experiments, the cause of death was uncontrolled intraperitoneal hemorrhage.\nIntraperitoneal injection was selected as providing a large membrane surface for ease of access to the circulating system. […]"}},
  "note": "Structures can show the parent of a compound that is named as a salt.",
  "data": [
    {"compound": "CCS(=O)(=O)O", "note": "[EMS, Ethane monosulfonate, sodium salt]", "values": [
      {"measurement": "course of splenic amyloid deposition (Figure 8)", "setting": "[1]; 6 mg/ml EMS in drinking water from day 7", "value": "stopped depositing amyloid after day 14"},
      {"measurement": "gastrointestinal side effect", "setting": "[1]; EMS 2.5 or 6 mg/ml in drinking water", "value": "did not develop gastrointestinal problems"},
      {"measurement": "inhibition of chronic amyloid deposition", "setting": "[1]; restated in Experiment 8 with reference to Experiment 6", "value": "has been observed to inhibit chronic amyloid deposition"},
      {"measurement": "amyloid deposition versus control animals", "setting": "amyloid deposition", "value": "not observed to have less amyloid deposition than control animals"}
    ]},
    {"compound": "O=S(=O)([O-])CCCCS(=O)(=O)[O-].[Na+].[Na+]", "note": "[butane-1,4-disulfonic acid sodium salt]", "values": [
      {"measurement": "amyloid deposition versus control animals", "setting": "amyloid deposition", "value": "not observed to have less amyloid deposition than control animals"}
    ]},
    {"compound": "O=S(=O)([O-])CCS(=O)(=O)[O-].[Na+].[Na+]", "note": "[ethane-1,2-disulfonic acid sodium salt]", "values": [
      {"measurement": "amyloid deposition versus control animals", "setting": "amyloid deposition", "value": "less amyloid deposition than control animals"}
    ]},
    {"compound": "O=S(=O)([O-])CCCS(=O)(=O)[O-].[Na+].[Na+]", "note": "[propane-1,3-disulfonic acid sodium salt]", "values": [
      {"measurement": "amyloid deposition versus control animals", "setting": "amyloid deposition", "value": "less amyloid deposition than control animals"}
    ]},
    {"compound": "CCCS(=O)(=O)[O-].[Na+]", "note": "[propane-1-sulfonic acid sodium salt]", "values": [
      {"measurement": "amyloid deposition versus control animals", "setting": "amyloid deposition", "value": "less amyloid deposition than control animals"}
    ]},
    {"compound": "N.N.N.N.N.N.N.N.O=S(=O)(O)OC[C@H]1O[C@@](COS(=O)(=O)O)(O[C@H]2O[C@H](COS(=O)(=O)O)[C@@H](OS(=O)(=O)O)[C@H](OS(=O)(=O)O)[C@H]2OS(=O)(=O)O)[C@@H](OS(=O)(=O)O)[C@@H]1OS(=O)(=O)O", "note": "[sucrose octasulfate, sucrose octasulfate ammonium salt]", "values": [
      {"measurement": "% Area Occupied by Amyloid", "setting": "[2]; ammonium salt", "value": "3.2% ± 0.5%"},
      {"measurement": "% Area Occupied by Amyloid", "setting": "[2]; listed as Sucrose OctaSO4, ammonium salt", "value": "3.2 ± 0.5", "unit": "%"},
      {"measurement": "viability of animals", "setting": "[3]; 36.5 mg/injection IP every 8 hours", "value": "all survived"},
      {"measurement": "viability of animals", "setting": "[3]; 73 mg/injection IP every 8 hours, cause of death intraperitoneal hemorrhage", "value": "succumbed prior to the termination of the experiment"}
    ]},
    {"compound": "NCCS(=O)(=O)[O-].[Na+]", "note": "[taurine sodium salt, 2-amino-ethanesulfonic acid sodium salt]", "values": [
      {"measurement": "amyloid deposition versus control animals", "setting": "amyloid deposition", "value": "not observed to have less amyloid deposition than control animals"}
    ]}
  ]
}
